Values of other authors, collected in paper PMC7403827 (Clinical and Translational Medicine, 2020).
Where two headings read alike, the source gives them in different places.

Tests used:
[1] = previously reported, cited from earlier work
CYP3A4 = tested on: CYP3A4; set-up: method as in PMID 28967981; details: cited from earlier work
[2] = Apatinib 250mg, ref [1] Yu M et al., Clinical Pharmacokinetics 2017
[3] = Apatinib 500mg, ref [2] Ding J et al., J Chromatogr B 2012

N#CC1(c2ccc(NC(=O)c3cccnc3NCc3ccncc3)cc2)CCCC1 [Apatinib]
AUC0-24 [1, 2]: 3538 (1996-6025) ng·h/ml
Cmax [1, 2]: 581 (321-1216) ng/ml
AUC0-24 [1, 3]: 11295 (70) ng·h/ml
Cmax [1, 3]: 1521 (75) ng/ml
Tmax [1, 3]: 3.5 (3-8) h
inhibitory effect on CYP3A4 (CYP3A4): strong inhibitory effect
